Values of other authors as cited in publication PMC6959220, “Glycofullerenes as non-receptor tyrosine kinase inhibitors- towards better nanotherapeutics for pancreatic cancer treatment” (Scientific Reports, 2020).

System: NHDF
Parameters: method as in PMID 30562697

## Cc1nc(Nc2ncc(C(=O)Nc3c(C)cccc3Cl)s2)cc(N2CCN(CCO)CC2)n1 [Dasatinib, dasatinib]
  cytotoxic effects on a normal cell line: cytotoxic effects
